# Source: ChEMBL document CHEMBL3792356, “Discovery of molluscicidal and cercaricidal activities of 3-substituted quinazolinone derivatives by a scaffold hopping approach using a pseudo-ring based on the intramolecular hydrogen bond formation” (Eur J Med Chem, 2016)
# Tests used:
# [1] = test system: Oncomelania hupensis; experiment: Molluscicidal activity against Oncomelania hupensis measured after 24 hrs; format: functional; conditions: for LC50: Oncomelania hupensis, 24 h
# [2] = test system: Schistosoma japonicum; experiment: Cercaricidal activity against Schistosoma japonicum infected in Oncomelania hupensis measured after 120 mins by colour television microscopy; format: functional; conditions: for LC50: Schistosoma japonicum, 2 h
# [3] = Toxicity in tadpole assessed as lethality at 10 ppm measured after 12 hrs; format: organism-based; conditions: anura, in vivo
# [4] = Toxicity in tadpole assessed as lethality at 5 ppm measured after 12 hrs; format: organism-based; conditions: anura, in vivo
# [5] = Toxicity in tadpole assessed as lethality at 2.5 ppm measured after 12 hrs; format: organism-based; conditions: anura, in vivo
# [6] = Toxicity in tadpole assessed as lethality at 1.25 ppm measured after 12 hrs; format: organism-based; conditions: anura, in vivo
# [7] = Toxicity in tadpole assessed as lethality at 0.625 ppm measured after 12 hrs; format: organism-based; conditions: anura, in vivo
# [8] = Toxicity in tadpole assessed as lethality at 0.3125 ppm measured after 12 hrs; format: organism-based; conditions: anura, in vivo
# [9] = Toxicity in tadpole assessed as lethality at 10 ppm measured after 24 hrs; format: organism-based; conditions: anura, in vivo
# [10] = Toxicity in tadpole assessed as lethality at 5 ppm measured after 24 hrs; format: organism-based; conditions: anura, in vivo
# [11] = Toxicity in tadpole assessed as lethality at 2.5 ppm measured after 24 hrs; format: organism-based; conditions: anura, in vivo
# [12] = Toxicity in tadpole assessed as lethality at 1.25 ppm measured after 24 hrs; format: organism-based; conditions: anura, in vivo
# [13] = Toxicity in tadpole assessed as lethality at 0.625 ppm measured after 24 hrs; format: organism-based; conditions: anura, in vivo
# [14] = Toxicity in tadpole assessed as lethality at 0.3125 ppm measured after 24 hrs; format: organism-based; conditions: anura, in vivo
# [15] = Toxicity in tadpole assessed as lethality at 10 ppm measured after 48 hrs; format: organism-based; conditions: anura, in vivo
# [16] = Toxicity in tadpole assessed as lethality at 5 ppm measured after 48 hrs; format: organism-based; conditions: anura, in vivo
# [17] = Toxicity in tadpole assessed as lethality at 2.5 ppm measured after 48 hrs; format: organism-based; conditions: anura, in vivo
# [18] = Toxicity in tadpole assessed as lethality at 1.25 ppm measured after 48 hrs; format: organism-based; conditions: anura, in vivo
# [19] = Toxicity in tadpole assessed as lethality at 0.625 ppm measured after 48 hrs; format: organism-based; conditions: anura, in vivo
# [20] = Toxicity in tadpole assessed as lethality at 0.3125 ppm measured after 48 hrs; format: organism-based; conditions: anura, in vivo
# [21] = Toxicity in tadpole assessed as lethality at 10 ppm measured after 72 hrs; format: organism-based; conditions: anura, in vivo
# [22] = Toxicity in tadpole assessed as lethality at 5 ppm measured after 72 hrs; format: organism-based; conditions: anura, in vivo
# [23] = Toxicity in tadpole assessed as lethality at 2.5 ppm measured after 72 hrs; format: organism-based; conditions: anura, in vivo
# [24] = Toxicity in tadpole assessed as lethality at 1.25 ppm measured after 72 hrs; format: organism-based; conditions: anura, in vivo
# [25] = Toxicity in tadpole assessed as lethality at 0.625 ppm measured after 72 hrs; format: organism-based; conditions: anura, in vivo
# [26] = Toxicity in tadpole assessed as lethality at 0.3125 ppm measured after 72 hrs; format: organism-based; conditions: anura, in vivo
# [27] = Toxicity in tadpole assessed as lethality at 10 ppm measured after 96 hrs; format: organism-based; conditions: anura, in vivo
# [28] = Toxicity in tadpole assessed as lethality at 5 ppm measured after 96 hrs; format: organism-based; conditions: anura, in vivo
# [29] = Toxicity in tadpole assessed as lethality at 2.5 ppm measured after 96 hrs; format: organism-based; conditions: anura, in vivo
# [30] = Toxicity in tadpole assessed as lethality at 1.25 ppm measured after 96 hrs; format: organism-based; conditions: anura, in vivo
# [31] = Toxicity in tadpole assessed as lethality at 0.625 ppm measured after 96 hrs; format: organism-based; conditions: anura, in vivo
# [32] = Toxicity in tadpole assessed as lethality at 0.3125 ppm measured after 96 hrs; format: organism-based; conditions: anura, in vivo
# [33] = Toxicity in tadpole assessed as lethality at 10 ppm measured after 120 hrs; format: organism-based; conditions: anura, in vivo
# [34] = Toxicity in tadpole assessed as lethality at 5 ppm measured after 120 hrs; format: organism-based; conditions: anura, in vivo
# [35] = Toxicity in tadpole assessed as lethality at 2.5 ppm measured after 120 hrs; format: organism-based; conditions: anura, in vivo
# [36] = Toxicity in tadpole assessed as lethality at 1.25 ppm measured after 120 hrs; format: organism-based; conditions: anura, in vivo
# [37] = Toxicity in tadpole assessed as lethality at 0.625 ppm measured after 120 hrs; format: organism-based; conditions: anura, in vivo
# [38] = Toxicity in tadpole assessed as lethality at 0.3125 ppm measured after 120 hrs; format: organism-based; conditions: anura, in vivo
smiles,measurement,setting,value
Cc1ccc(-n2cnc3c(Cl)cc(Cl)cc3c2=O)cc1,LC90,[1],6.21 ppm
same,LC50,[1],4.71 µg/mL
same,LC90,[2],1.57 ppm
same,LC50,[2],1.19 µg/mL
Cc1ccc(-n2cnc3ccc(Cl)cc3c2=O)c(C)c1,LC90,[1],5.75 ppm
same,LC50,[1],4.36 µg/mL
same,LC90,[2],1.45 ppm
same,LC50,[2],1.1 µg/mL
O=c1c2cc(Cl)cc(Cl)c2ncn1-c1ccccc1,LC90,[1],8.71 ppm
same,LC50,[1],6.61 µg/mL
same,LC90,[2],2.19 ppm
same,LC50,[2],1.66 µg/mL
COc1ccc(-n2cnc3c(Cl)cc(Cl)cc3c2=O)cc1,LC90,[1],13.18 ppm
same,LC50,[1],10 µg/mL
same,LC90,[2],3.31 ppm
same,LC50,[2],2.51 µg/mL
Cc1ccc(-n2cnc3ccc([N+](=O)[O-])cc3c2=O)cc1,LC90,[1],7.58 ppm
same,LC50,[1],5.75 µg/mL
same,LC90,[2],1.91 ppm
same,LC50,[2],1.45 µg/mL
CCCn1cnc2ccc(Cl)cc2c1=O,LC90,[1],>100 ppm
same,LC50,[1],> 100 µg/mL
same,LC90,[2],>50 ppm
same,LC50,[2],> 50 µg/mL
COc1cc(-n2cnc3ccc([N+](=O)[O-])cc3c2=O)cc(OC)c1OC,LC90,[1],6.61 ppm
same,LC50,[1],5.01 µg/mL
same,LC90,[2],1.66 ppm
same,LC50,[2],1.26 µg/mL
Cc1ccc(-n2cnc3c(Cl)cc(Cl)cc3c2=O)c(C)c1,LC90,[1],7.08 ppm
same,LC50,[1],5.37 µg/mL
same,LC90,[2],1.78 ppm
same,LC50,[2],1.35 µg/mL
O=c1c2cc([N+](=O)[O-])ccc2ncn1-c1ccccc1,LC90,[1],9.33 ppm
same,LC50,[1],7.07 µg/mL
same,LC90,[2],2.34 ppm
same,LC50,[2],1.78 µg/mL
CN(C)c1ccc(-n2cnc3c(Cl)cc(Cl)cc3c2=O)cc1,LC90,[1],8.13 ppm
same,LC50,[1],6.17 µg/mL
same,LC90,[2],2.04 ppm
same,LC50,[2],1.55 µg/mL
COc1ccc(-n2cnc3c(Cl)cc(Cl)cc3c2=O)c(OC)c1,LC90,[1],8.62 ppm
same,LC50,[1],6.55 µg/mL
same,LC90,[2],2.15 ppm
same,LC50,[2],1.64 µg/mL
Cc1ccc(-n2cnc3ccc(Cl)cc3c2=O)cc1,LC90,[1],5.37 ppm
same,LC50,[1],4.07 µg/mL
same,LC90,[2],1.35 ppm
same,LC50,[2],1.02 µg/mL
COc1cc(-n2cnc3ccc(Cl)cc3c2=O)cc(OC)c1OC,LC90,[1],3.55 ppm
same,LC50,[1],2.69 µg/mL
same,LC90,[2],0.89 ppm
same,LC50,[2],0.68 µg/mL
same,"mortality at 12 h, 10 ppm",[3],0%
same,"mortality at 12 h, 5 ppm",[4],0%
same,"mortality at 12 h, 2.5 ppm",[5],0%
same,"mortality at 12 h, 1.25 ppm",[6],0%
same,"mortality at 12 h, 0.625 ppm",[7],0%
same,"mortality at 12 h, 0.3125 ppm",[8],0%
same,"mortality at 24 h, 10 ppm",[9],0%
same,"mortality at 24 h, 5 ppm",[10],0%
same,"mortality at 24 h, 2.5 ppm",[11],0%
same,"mortality at 24 h, 1.25 ppm",[12],0%
same,"mortality at 24 h, 0.625 ppm",[13],0%
same,"mortality at 24 h, 0.3125 ppm",[14],0%
same,"mortality at 48 h, 10 ppm",[15],10%
same,"mortality at 48 h, 5 ppm",[16],0%
same,"mortality at 48 h, 2.5 ppm",[17],0%
same,"mortality at 48 h, 1.25 ppm",[18],0%
same,"mortality at 48 h, 0.625 ppm",[19],0%
same,"mortality at 48 h, 0.3125 ppm",[20],0%
same,"mortality at 72 h, 10 ppm",[21],10%
same,"mortality at 72 h, 5 ppm",[22],0%
same,"mortality at 72 h, 2.5 ppm",[23],0%
same,"mortality at 72 h, 1.25 ppm",[24],0%
same,"mortality at 72 h, 0.625 ppm",[25],0%
same,"mortality at 72 h, 0.3125 ppm",[26],0%
same,"mortality at 96 h, 10 ppm",[27],20%
same,"mortality at 96 h, 5 ppm",[28],10%
same,"mortality at 96 h, 2.5 ppm",[29],0%
same,"mortality at 96 h, 1.25 ppm",[30],0%
same,"mortality at 96 h, 0.625 ppm",[31],0%
same,"mortality at 96 h, 0.3125 ppm",[32],0%
same,"mortality at 120 h, 10 ppm",[33],20%
same,"mortality at 120 h, 5 ppm",[34],10%
same,"mortality at 120 h, 2.5 ppm",[35],0%
same,"mortality at 120 h, 1.25 ppm",[36],0%
same,"mortality at 120 h, 0.625 ppm",[37],0%
same,"mortality at 120 h, 0.3125 ppm",[38],0%
COc1cc(-n2cnc3c(Cl)cc(Cl)cc3c2=O)cc(OC)c1OC,LC90,[1],12.95 ppm
same,LC50,[1],9.95 µg/mL
same,LC90,[2],3.28 ppm
same,LC50,[2],2.49 µg/mL
COc1ccc(-n2cnc3ccc(Cl)cc3c2=O)c(OC)c1,LC90,[1],4.97 ppm
same,LC50,[1],3.78 µg/mL
same,LC90,[2],1.19 ppm
same,LC50,[2],0.91 µg/mL
COc1cc([N+](=O)[O-])ccc1-n1cnc2c(Cl)cc(Cl)cc2c1=O,LC90,[1],7.03 ppm
same,LC50,[1],5.34 µg/mL
same,LC90,[2],1.72 ppm
same,LC50,[2],1.31 µg/mL
NCCO.O=C(Nc1ccc([N+](=O)[O-])cc1Cl)c1cc(Cl)ccc1O,LC90,[1],<1 ppm
same,LC50,[1],< 1 µg/mL
same,LC90,[2],<0.1 ppm
same,LC50,[2],< 0.1 µg/mL
O=c1c2cc(Cl)cc(Cl)c2ncn1-c1ccc([N+](=O)[O-])cc1,LC90,[1],6.11 ppm
same,LC50,[1],4.65 µg/mL
same,LC90,[2],1.52 ppm
same,LC50,[2],1.15 µg/mL
COc1ccc(-n2cnc3ccc(Cl)cc3c2=O)cc1,LC90,[1],5.01 ppm
same,LC50,[1],3.8 µg/mL
same,LC90,[2],1.23 ppm
same,LC50,[2],0.95 µg/mL
O=c1c2cc(Cl)ccc2ncn1-c1ccccc1,LC90,[1],6.16 ppm
same,LC50,[1],4.68 µg/mL
same,LC90,[2],1.55 ppm
same,LC50,[2],1.17 µg/mL
O=c1c2cc(Cl)ccc2ncn1C1CCCCC1,LC90,[1],>100 ppm
same,LC50,[1],> 100 µg/mL
same,LC90,[2],>50 ppm
same,LC50,[2],> 50 µg/mL
